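Method: 48-hour compound exposure of cells in 96-well plates, five concentrations, linear interpolation of endpoints. GI50 = concentration required for 50% inhibition of growth.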 Active and inactive are the calls of the source. Rule as the data show it: active = GI50 up to about 1.1 µM and inactive = higher.
How the values were obtained:
Experiment in all cases: NCI anticancer screen, dose series, 48 h
[1] = system: 786-0
[2] = system: A549
[3] = system: DU-145
[4] = system: EKVX
[5] = system: HCT-116
[6] = system: HL-60
[7] = system: IGROV-1
[8] = system: M14
[9] = system: MDA-N
[10] = system: MOLT-4
[11] = system: Malme-3M
[12] = system: NCI-H226
[13] = system: NCI-H23
[14] = system: NCI-H522
[15] = system: OVCAR-4
[16] = system: OVCAR-5
[17] = system: RXF 393
[18] = system: SK-OV-3
[19] = system: SN12C
[20] = system: UO-31

In the case of `C=C1CCCC2[C@](C)(CC3=C(Cl)C(=O)C=C(OC)C3=O)C(C)CC[C@]12C` (some centres not stated), the GI50 [1] is reported as 1.85 µM (inactive), the GI50 [2] is reported as 5.27 µM (inactive) and the GI50 [3] is reported as 8.04 µM (inactive). The GI50 [4] was 2.02 µM (inactive), the GI50 [5] was 1.75 µM (inactive) and the GI50 [6] was 1900 nM (inactive). For the same compound, the GI50 [7] was 1.9 µM (inactive), the GI50 [8] was 4.33 µM (inactive) and the GI50 [9] was 6.95 µM (inactive). For the same compound, the GI50 [10] was 0.745 µM (active), the GI50 [11] was 8.18 µM (inactive) and the GI50 [12] was 7.6 µM (inactive). For the same compound, the GI50 [13] was 4.49 µM (inactive), the GI50 [14] was 1160 nM (inactive) and the GI50 [15] was 7.52 µM (inactive). The GI50 [16] was 2.94 µM (inactive), the GI50 [17] was 5.42 µM (inactive) and the GI50 [18] was 20.7 µM (inactive). For the same compound, the GI50 [19] was 5.77 µM (inactive) and the GI50 [20] was 1.76 µM (inactive).

With `CCN(CC)C1Oc2cc3c(cc2C(c2cccc(OC)c2O)C1C)OCO3` (configuration not stated) the GI50 [1] was 9.79 µM (inactive), the GI50 [2] was 5.02 µM (inactive) and the GI50 [3] was 5.35 µM (inactive). For the same compound, the GI50 [4] was 10.6 µM (inactive), the GI50 [5] was 4.28 µM (inactive) and the GI50 [6] was 2990 nM (inactive). For the same compound, the GI50 [7] was 8.04 µM (inactive), the GI50 [8] was 2.98 µM (inactive) and the GI50 [9] was 1.7 µM (inactive). For the same compound, the GI50 [10] was 3.68 µM (inactive), the GI50 [11] was 3.94 µM (inactive) and the GI50 [12] was 3.44 µM (inactive). The GI50 [13] was 5.79 µM (inactive), the GI50 [14] was 2410 nM (inactive) and the GI50 [15] was 7.14 µM (inactive). For the same compound, the GI50 [16] was 13.8 µM (inactive), the GI50 [17] was 4.5 µM (inactive) and the GI50 [18] was 4.99 µM (inactive). The GI50 [19] was 4.6 µM (inactive) and the GI50 [20] was 9.38 µM (inactive).

With `CC(C)C[C@H](NC(=O)[C@H](CCc1ccccc1)NC(=O)c1ccc2ccccc2n1)B(O)O` the GI50 [1] was < 0.0225 µM (active), the GI50 [2] was 0.233 µM (active) and the GI50 [3] was 0.0752 µM (active). For the same compound, the GI50 [4] was 0.264 µM (active), the GI50 [5] was < 0.0122 µM (active) and the GI50 [6] was < 10 nM (active). The GI50 [7] was 0.0705 µM (active), the GI50 [8] was < 0.0109 µM (active) and the GI50 [9] was < 0.01 µM (active). For the same compound, the GI50 [10] was < 0.01 µM (active), the GI50 [11] was < 0.01 µM (active) and the GI50 [12] was < 0.01 µM (active). For the same compound, the GI50 [13] was 0.0367 µM (active), the GI50 [14] was < 12.8 nM (active) and the GI50 [15] was 0.185 µM (active). For the same compound, the GI50 [16] was < 0.0268 µM (active), the GI50 [17] was < 0.01 µM (active) and the GI50 [19] was < 0.01 µM (active). For the same compound, the GI50 [20] was 0.0845 µM (active).

`CCCCc1cc2c(C)cc(=O)oc2c(O)c1O` was tested, and the GI50 [1] was 33.9 µM (inactive), the GI50 [2] was 33.2 µM (inactive) and the GI50 [3] was 32.2 µM (inactive). The GI50 [4] was 52.8 µM (inactive), the GI50 [5] was 30.5 µM (inactive) and the GI50 [6] was 18100 nM (inactive). The GI50 [7] was 24.6 µM (inactive), the GI50 [8] was 31.6 µM (inactive) and the GI50 [9] was 38.5 µM (inactive). For the same compound, the GI50 [10] was 25.2 µM (inactive), the GI50 [11] was 27.8 µM (inactive) and the GI50 [12] was 23.9 µM (inactive). For the same compound, the GI50 [13] was 34.9 µM (inactive), the GI50 [14] was 21500 nM (inactive) and the GI50 [15] was 32.1 µM (inactive). The GI50 [16] was 69.7 µM (inactive), the GI50 [17] was 24.8 µM (inactive) and the GI50 [19] was 32.4 µM (inactive). The GI50 [20] was 20.3 µM (inactive).

With `O=c1c2ccccc2nc(-c2ccccc2)n1/N=C/c1ccccc1[N+](=O)[O-]` the GI50 [1] was 21.9 µM (inactive), the GI50 [2] was > 100 µM (inactive) and the GI50 [3] was > 100 µM (inactive). For the same compound, the GI50 [4] was > 51.1 µM (inactive), the GI50 [5] was 40.5 µM (inactive) and the GI50 [6] was > 100000 nM (inactive). The GI50 [7] was > 69.7 µM (inactive), the GI50 [8] was > 100 µM (inactive) and the GI50 [9] was > 100 µM (inactive). For the same compound, the GI50 [10] was > 100 µM (inactive), the GI50 [11] was > 100 µM (inactive) and the GI50 [12] was 61.1 µM (inactive). For the same compound, the GI50 [13] was 15.3 µM (inactive), the GI50 [14] was > 53200 nM (inactive) and the GI50 [15] was > 91.2 µM (inactive). The GI50 [16] was > 100 µM (inactive), the GI50 [17] was 19.3 µM (inactive) and the GI50 [18] was 19.6 µM (inactive). For the same compound, the GI50 [19] was > 74.8 µM (inactive).

With `CC[C@@]1(O)C[C@H](OC2CC(N(C)C)C(OC3CC(O)C(OC4CCC(=O)C(C)O4)C(C)O3)C(C)O2)c2c(cc3c(c2O)C(=O)c2c(O)ccc(O)c2C3=O)[C@H]1C(=O)OC` (some centres not stated) the GI50 [1] was < 0.01 µM (active), the GI50 [2] was 6.7e-05 µM (active) and the GI50 [3] was 0.00173 µM (active). For the same compound, the GI50 [4] was 0.00492 µM (active), the GI50 [5] was 2.32e-05 µM (active) and the GI50 [6] was 0.0656 nM (active). The GI50 [7] was 5.35e-05 µM (active), the GI50 [8] was 0.000438 µM (active) and the GI50 [9] was 0.000427 µM (active). The GI50 [10] was 3.55e-05 µM (active), the GI50 [11] was 9.06e-05 µM (active) and the GI50 [12] was 5.83e-05 µM (active). The GI50 [13] was 0.00157 µM (active), the GI50 [14] was 0.0528 nM (active) and the GI50 [15] was 1.06e-05 µM (active). For the same compound, the GI50 [16] was 0.000365 µM (active), the GI50 [17] was 0.000344 µM (active) and the GI50 [18] was 0.000404 µM (active). For the same compound, the GI50 [19] was 4.18e-05 µM (active) and the GI50 [20] was 4.22e-05 µM (active).

For `CCN(CC)C1Oc2cc3c(cc2C(c2cc(OC)c(O)c(OC)c2)C1C)OCO3` (configuration not stated), the GI50 [1] was 10.4 µM (inactive), the GI50 [2] was 11.7 µM (inactive) and the GI50 [3] was 29.9 µM (inactive). For the same compound, the GI50 [4] was 36.8 µM (inactive), the GI50 [5] was 4.53 µM (inactive) and the GI50 [6] was 2690 nM (inactive). The GI50 [7] was 9.98 µM (inactive), the GI50 [8] was 4.69 µM (inactive) and the GI50 [9] was 1.98 µM (inactive). The GI50 [10] was 6.08 µM (inactive), the GI50 [11] was 3.55 µM (inactive) and the GI50 [12] was 10.8 µM (inactive). For the same compound, the GI50 [13] was 28.8 µM (inactive), the GI50 [14] was 3100 nM (inactive) and the GI50 [15] was 22.3 µM (inactive). For the same compound, the GI50 [16] was 14.2 µM (inactive), the GI50 [17] was 6.95 µM (inactive) and the GI50 [18] was 9.18 µM (inactive). For the same compound, the GI50 [19] was 15.2 µM (inactive) and the GI50 [20] was 19.6 µM (inactive).
